For data set [1] the following is noted: cited from earlier work.
The nature of data set [2]: in vivo. Particulars: rat. As for the experimental part: Quantification was performed using the selective MRM mode on a short LC column using a fast gradient.
Blood samples were collected at time 0, 30 min and 1, 3, 6, 24, 30 and 48 hrs. All plasma samples were collected after centrifugation and frozen at −80° C. Plasma was transferred on dry ice to the Platform of Biopharmacy and was kept at −80° C. until extraction and LC/MS/MS analysis (Table 1).
The plasma tubes were thawed on ice. Plasma samples were vortex mixed and 20 μL were pipetted into Eppendorf tubes. Proteins were precipitated by the addition of 40 μL acetonitrile. The tubes were vortex mixed and centrifuged for 4.5 min at 13,000 rpm. 20 μL of supernatant was transferred into a HPLC 96-well plate, and mixed with two volumes of water containing 5 mM ammonium acetate. The calibration curve was prepared in blank SD rat plasma, by serial dilution from 10 μM to […] Standard plasma samples were treated as described above.
Chromatography was performed on a Phenomenex Luna C8(2) 30×2 mm (5 μm) using gradient elution at 0.7 mL/min. The injection volume was 4 μL. The total acquisition time was 4.5 min. Samples were analyzed in selective MRM mode using LC-MS/MS. Peak area ratios for calibration curves and quantification of samples were calculated using Analyst software version 1.6.2. Calibration curves were plotted using the peak area ratios analyte/internal standard versus nominal analyte concentration, using a quadratic weighted 1/x regression.

For data set [3] the following is noted: rat, in vivo.
Data set [4] is described as follows: in vivo. Particulars: male, rat, po, 50 mg/kg, plasma Raloxifene.

Where two headings read alike, the source gives them in different places.

`CCc1c2c(nc3ccc(OC(=O)N4CCC(N5CCCCC5)CC4)cc13)-c1cc3c(c(=O)n1C2)COC(=O)[C@]3(O)CC` [Irinotecan]: in data set [1], the “water solubility (in words)” value is “good water solubility”.

As for `N#Cc1ccc(C(c2ccc(C#N)cc2)n2cncn2)cc1` [Letrozole], the highest level in “in vivo [2]” (male, SD (Sprague-Dawley), po, 5 mg/kg, Cmax, plasma Letrozole) (Cmax) was 4.24 µM. Further, the Tmax in “in vivo [2]” (male, SD (Sprague-Dawley), po, 5 mg/kg, plasma Letrozole) was found to be 4.5 h; in the data set “in vivo [2]” (male, SD, po, 5 mg/kg, plasma Letrozole) it was 6 h. In “in vivo [2]”, the “drug toxicity after combination with HA” value is on record as “no detectable augmentation of the drug toxicity”. For the same compound, in the data set “in vivo [2]” (po), the “bioavailability after combination with HA” value is recorded as “increased”. For the same compound, in data set [1], the “water solubility (in words)” value is given as “very poor water solubility”.

For `O=C(c1ccc(OCCN2CCCCC2)cc1)c1c(-c2ccc(O)cc2)sc2cc(O)ccc12` [Raloxifene], the “drug toxicity after combination with HA” value in data set [3] was “no detectable augmentation of the drug toxicity”. In data set [3] (po), the “bioavailability after combination with HA” value was “increased”. In the data set “in vivo [4]” (SD (Sprague-Dawley), Cmax), this compound registered a Cmax of 190 nM. For the same compound, the figures for the Tmax in “in vivo [4]” (SD (Sprague-Dawley)) and in the data set “in vivo [4]” (SD) were 4.5 h and 3 h, respectively. In data set [1], the “water solubility (in words)” value is “very poor water solubility”.
